Measured values: patent US6423689B1, “Peptidyl calcium channel blockers” (Warner-Lambert Company, priority 1997, dated 2002)

Assays:
[1] = biological target: T1, N-type Ca2+ channels in IMR-32 cells (Homo sapiens, UniProt Q00975); experiment: Inhibition of N-type calcium flux in IMR-32 cells (Indo-1 fluorescence, nitrendipine present); format: cell-based; conditions: for inhibition at 1 µM / inhibition at 10 µM: IMR-32; for IC50: IMR-32 cells, 5 μM nitrendipine, K+ depolarization
T1 construct: host or cells: IMR-32 cells, differentiated with dibutyryl cAMP and bromodeoxyuridine
T1 sequence (Q00975 whole entry): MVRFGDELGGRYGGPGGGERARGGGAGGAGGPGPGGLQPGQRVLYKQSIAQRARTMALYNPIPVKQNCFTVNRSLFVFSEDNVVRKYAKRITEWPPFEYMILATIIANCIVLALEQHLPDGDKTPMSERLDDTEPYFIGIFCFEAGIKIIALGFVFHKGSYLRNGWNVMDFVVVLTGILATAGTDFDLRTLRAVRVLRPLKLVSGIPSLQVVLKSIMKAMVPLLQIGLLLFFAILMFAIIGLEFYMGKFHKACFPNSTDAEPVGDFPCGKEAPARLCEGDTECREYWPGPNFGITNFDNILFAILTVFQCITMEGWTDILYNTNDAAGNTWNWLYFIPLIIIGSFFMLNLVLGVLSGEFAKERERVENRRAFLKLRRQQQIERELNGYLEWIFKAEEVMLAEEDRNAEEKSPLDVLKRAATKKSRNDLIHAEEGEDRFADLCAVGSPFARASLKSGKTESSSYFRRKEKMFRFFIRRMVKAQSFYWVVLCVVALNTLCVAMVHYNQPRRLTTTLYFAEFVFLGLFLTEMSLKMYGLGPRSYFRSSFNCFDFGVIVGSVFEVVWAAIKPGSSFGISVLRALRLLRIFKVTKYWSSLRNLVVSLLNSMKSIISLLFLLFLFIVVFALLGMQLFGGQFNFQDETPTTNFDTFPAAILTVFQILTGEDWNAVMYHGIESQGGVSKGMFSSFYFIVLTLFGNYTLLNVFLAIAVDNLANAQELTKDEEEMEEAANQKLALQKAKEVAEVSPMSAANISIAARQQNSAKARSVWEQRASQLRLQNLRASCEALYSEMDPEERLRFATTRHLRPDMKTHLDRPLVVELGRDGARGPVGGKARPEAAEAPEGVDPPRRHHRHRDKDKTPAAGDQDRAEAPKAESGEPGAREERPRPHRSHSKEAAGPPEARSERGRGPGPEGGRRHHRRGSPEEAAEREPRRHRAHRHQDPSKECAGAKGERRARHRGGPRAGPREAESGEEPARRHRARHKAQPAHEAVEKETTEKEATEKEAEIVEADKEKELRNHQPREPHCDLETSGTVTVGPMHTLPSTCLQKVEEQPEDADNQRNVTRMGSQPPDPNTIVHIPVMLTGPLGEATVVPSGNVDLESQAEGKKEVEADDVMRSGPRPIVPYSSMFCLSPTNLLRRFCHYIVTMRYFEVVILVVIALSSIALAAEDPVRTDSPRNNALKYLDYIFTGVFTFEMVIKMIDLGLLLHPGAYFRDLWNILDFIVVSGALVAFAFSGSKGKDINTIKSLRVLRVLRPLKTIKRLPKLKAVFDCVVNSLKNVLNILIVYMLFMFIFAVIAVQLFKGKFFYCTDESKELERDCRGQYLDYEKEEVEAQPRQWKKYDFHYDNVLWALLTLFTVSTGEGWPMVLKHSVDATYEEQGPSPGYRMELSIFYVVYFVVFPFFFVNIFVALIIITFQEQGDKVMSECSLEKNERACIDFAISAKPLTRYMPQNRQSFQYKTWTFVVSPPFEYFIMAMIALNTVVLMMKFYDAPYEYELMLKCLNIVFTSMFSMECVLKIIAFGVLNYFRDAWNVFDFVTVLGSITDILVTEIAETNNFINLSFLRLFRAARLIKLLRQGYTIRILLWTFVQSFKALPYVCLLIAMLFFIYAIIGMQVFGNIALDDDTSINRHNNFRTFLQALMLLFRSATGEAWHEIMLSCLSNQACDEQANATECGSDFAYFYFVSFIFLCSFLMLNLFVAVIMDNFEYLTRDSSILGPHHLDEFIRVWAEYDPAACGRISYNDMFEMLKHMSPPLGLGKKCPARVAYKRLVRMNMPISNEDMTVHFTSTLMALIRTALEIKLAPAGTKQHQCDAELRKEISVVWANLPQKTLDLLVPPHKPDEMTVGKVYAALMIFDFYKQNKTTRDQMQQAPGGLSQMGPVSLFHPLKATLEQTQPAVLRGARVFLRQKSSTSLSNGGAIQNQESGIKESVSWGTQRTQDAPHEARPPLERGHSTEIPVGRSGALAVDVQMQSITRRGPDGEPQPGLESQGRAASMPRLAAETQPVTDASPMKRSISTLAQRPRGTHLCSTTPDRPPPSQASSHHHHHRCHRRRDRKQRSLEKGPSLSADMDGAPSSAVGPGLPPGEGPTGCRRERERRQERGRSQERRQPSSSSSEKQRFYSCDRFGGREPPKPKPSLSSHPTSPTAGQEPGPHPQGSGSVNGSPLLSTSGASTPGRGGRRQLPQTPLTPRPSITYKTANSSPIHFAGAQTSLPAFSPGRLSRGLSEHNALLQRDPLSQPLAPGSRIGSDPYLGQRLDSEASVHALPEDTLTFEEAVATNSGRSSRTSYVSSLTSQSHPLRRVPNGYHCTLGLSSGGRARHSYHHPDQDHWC
T1 sequence (P54289 25-956 partner limits assumed): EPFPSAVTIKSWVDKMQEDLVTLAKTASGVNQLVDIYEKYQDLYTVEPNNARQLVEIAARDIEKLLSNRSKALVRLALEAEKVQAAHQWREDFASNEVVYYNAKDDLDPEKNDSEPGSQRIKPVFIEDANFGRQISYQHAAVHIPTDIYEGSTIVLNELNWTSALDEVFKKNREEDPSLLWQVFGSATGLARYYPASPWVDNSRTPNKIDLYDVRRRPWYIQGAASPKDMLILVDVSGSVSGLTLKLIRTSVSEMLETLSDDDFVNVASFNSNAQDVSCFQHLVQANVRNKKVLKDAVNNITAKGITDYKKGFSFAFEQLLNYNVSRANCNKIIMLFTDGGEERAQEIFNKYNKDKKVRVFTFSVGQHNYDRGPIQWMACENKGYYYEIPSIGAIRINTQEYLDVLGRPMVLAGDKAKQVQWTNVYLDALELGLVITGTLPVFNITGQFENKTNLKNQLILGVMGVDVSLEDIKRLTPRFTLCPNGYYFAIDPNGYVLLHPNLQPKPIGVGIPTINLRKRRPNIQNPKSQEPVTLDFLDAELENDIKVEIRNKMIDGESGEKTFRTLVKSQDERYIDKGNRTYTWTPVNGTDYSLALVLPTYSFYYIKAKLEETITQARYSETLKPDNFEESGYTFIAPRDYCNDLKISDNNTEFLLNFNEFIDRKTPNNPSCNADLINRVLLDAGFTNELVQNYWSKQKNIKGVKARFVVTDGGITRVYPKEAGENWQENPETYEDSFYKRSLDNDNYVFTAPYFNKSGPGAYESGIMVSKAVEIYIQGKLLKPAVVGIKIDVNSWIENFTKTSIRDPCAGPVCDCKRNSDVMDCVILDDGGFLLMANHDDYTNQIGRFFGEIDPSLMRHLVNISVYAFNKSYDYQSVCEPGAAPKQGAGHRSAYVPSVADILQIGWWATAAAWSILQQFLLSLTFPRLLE
T1 sequence (P54289 957-1103 partner limits assumed): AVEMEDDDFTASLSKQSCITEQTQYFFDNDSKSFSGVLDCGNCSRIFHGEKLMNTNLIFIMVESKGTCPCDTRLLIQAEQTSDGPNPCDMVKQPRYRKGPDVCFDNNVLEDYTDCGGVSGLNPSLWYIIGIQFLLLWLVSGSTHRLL
T1 sequence (P54284 whole entry partner): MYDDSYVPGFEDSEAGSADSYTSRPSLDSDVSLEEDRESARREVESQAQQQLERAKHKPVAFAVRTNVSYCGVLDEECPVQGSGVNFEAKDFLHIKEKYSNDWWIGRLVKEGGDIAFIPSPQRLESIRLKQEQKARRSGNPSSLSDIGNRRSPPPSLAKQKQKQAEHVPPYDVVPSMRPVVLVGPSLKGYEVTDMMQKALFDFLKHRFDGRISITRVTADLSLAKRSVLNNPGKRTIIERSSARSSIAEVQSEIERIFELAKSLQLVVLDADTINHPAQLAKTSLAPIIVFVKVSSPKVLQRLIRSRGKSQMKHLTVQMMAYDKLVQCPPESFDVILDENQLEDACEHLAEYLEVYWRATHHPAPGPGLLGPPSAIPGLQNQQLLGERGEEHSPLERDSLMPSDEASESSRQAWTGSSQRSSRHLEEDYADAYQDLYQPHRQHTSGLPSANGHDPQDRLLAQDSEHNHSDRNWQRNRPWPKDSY
How it was run: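 Differentiated IMR-32 cells (7–13 days) were loaded with 5 μM Indo-1 AM, preincubated with compound for 10 min at 30° C, and depolarized with KCl/CaCl2 stimulation solution, with 5 μM nitrendipine blocking L-channels. Peak-minus-basal 400/490 nm emission ratio was plotted against drug concentration, and IC50 came from four-parameter logistic fits.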

[2] = biological target: T2, L-type Ca2+ channels in A10 cells (Rattus norvegicus, UniProt P22002); experiment: Inhibition of L-type calcium flux in A10 cells (FLIPR); format: cell-based
T2 construct: which endogenously expresses L-type calcium channels; host or cells: A10 rat aortic smooth muscle cells
Procedure: Measurement of L-type Ca^2+ Channel Blocking Potencies of Compounds in A10 cells
Calcium flux through voltage-sensitive calcium channels was assessed by time-resolved monitoring of the fluorescence of pre-loaded calcium-sensitive dyes using FLIPR, a fluorescent image plate reader (Molecular Devices Co.). The A10 smooth muscle cell line derived from embryonic thoracic aorta of the DBIX rat (ATCC, CRL-1476) which endogenously expresses L-type calcium channels. The growth media for A10 cells was Ham's F12/DME high glucose (Irvine Scientific, 9052), supplemented with 20% fetal bovine serum (HyClone Labs, A-1115-L), and 1% each of L-glutamine and antibiotic-antimycotic (same source as above).
Cells were grown to confluency and replated on black-sided 96-well plates (Costar, 3603) for use in FLIPR. Two days after replating, growth media was removed and cells were loaded at 37° C. with 100 μL media containing 1 μM Oregon Green 488 Bapta-1 dye (Molecular Probes, O-6807) for 1 to 3 hours. The dye-containing media was then washed away with buffer (composition in mM: 1.25 CaCl2, 1.2 MgSO4, 11 glucose, 10 HEPES, 3.0 KCl, 137.0 NaCl, pH 7.4 with Tris base) in a Denley Cellwash (Labsystems, CW018B). The residual buffer volume was adjusted to 50 μL. A 5 minute drug-pre-incubation period at 35° C. was initiated when 50 μL of drug-containing buffer was pipetted into the cell plate with the 96-well pipettor integrated in the FLIPR apparatus. Fluorescent counts were monitored at 20 second intervals for 360 seconds, beginning 60 seconds prior to the delivery of drug-containing buffer. Following drug addition, 100 μL aliquots of a high K^+, depolarizing stimulus (composition in mM: 1.25 CaCl2, 1.2 MgSO4, 11 glucose, 10 HEPES, 140.0 KCl, pH 7.4 with Tris base) were added to each well and fluorescence was monitored at 1 second intervals for 120 seconds, beginning 10 seconds prior to the stimulus addition. CCD camera exposure time was 0.4 seconds, laser excitation was at 488 nm with a power of 0.2-0.5W, and a 510 to 560 nm bandpass interference filter preceded the camera.
Data was analyzed as a summation of fluorescent counts above basal during the stimulation period (an approximation of area under the curve), after normalizing the data with a spatial uniformity correction (for variations in laser illumination and cell density) and a negative control correction (zero calcium increase defined as the fluorescence reading in the presence of saturating pharmacologic block of the respective calcium channel). Drug effects were expressed as percent inhibition of fluorescence from an average of 8 K^+-stimulated wells which were pre-treated in the drug incubation period with buffer only.
In the A10 cells, the pharmacologic agent used to define zero calcium influx was nitrendipine (RBI, N-144), at a final concentration of 1.0×10^−6 M.

[3] = biological target: T3, N-type Ca2+ channels in superior cervical ganglion (SCG) neurons (Rattus norvegicus, UniProt Q02294); experiment: Whole-cell voltage clamp, N-type Ca2+ current in SCG neurons; format: cell-based; conditions: for IC50: read-out: Inhibition of N-type Ca2+ Current IC50
T3 construct: from tissue
How it was run: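 Whole-cell voltage clamp of acutely trypsin-dissociated rat SCG neurons, with TEA/choline external solution (2 mM Ca2+) and Cs-methanesulfonate pipette solution. Currents evoked by 150 ms steps to +20 mV from −65 to −55 mV holding, every 40 s; compounds applied locally, effect as % inhibition of control amplitude.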

[4] = test system: Na+ channels in superior cervical ganglion (SCG) neurons; experiment: Whole-cell voltage clamp, Na+ current in SCG neurons; format: cell-based, rat; conditions: 10 μM
How it was run: (§1)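 Acutely dissociated (trypsin) SCG neurons under whole-cell voltage clamp, external NaCl/KCl/HEPES buffer pH 7.4, K-gluconate/KCl pipette. From holding potential −65 to −55 mV, 35 msec steps every 10 sec to 0 mV (peak Na+ current) or +50 mV (sustained K+ current); compounds perfused locally to steady-state block, reported as percent inhibition of control.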

[5] = test system: K+ channels in superior cervical ganglion (SCG) neurons; experiment: Whole-cell voltage clamp, K+ current in SCG neurons; format: cell-based, rat; conditions: 10 μM
How it was run: as §1

Compound	Inhibition of Calcium Flux in IMR-32 Cells % Inhibition at 1 μM ([1]; 1 μM)	Inhibition of Calcium Flux in IMR-32 Cells % Inhibition at 10 μM ([1]; 10 μM)	IC50 [2]	inhibition at 10 µM [3]	inhibition at 1 µM [1]	inhibition at 10 µM [1]	IC50 [1]	melting point	IC50 [3]	Inhibition of Na+ Current, % Inhibition at 10 μM [4]	Inhibition of K+ Current, % Inhibition at 10 μM [5]
COc1cc(NC(=O)N[C@@H](CC(C)C)C(=O)N[C@@H](Cc2ccc(OCc3ccccc3)cc2)C(=O)OC(C)(C)C)cc(OC)c1OC (relative stereo) [Example 67, [S-(R*,R*)]-3-(4-Benzyloxy-phenyl)-2-{4-methyl-2-[3-(3,4,5-trimethoxy-phenyl)-ureido]-pentanoylamino}-propionic acid tert-butyl ester]	10%	19%	3000 nM	–	–	–	–	–	–	–	–
CC(C)C[C@H](NC(=O)N1CCCCCC1)C(=O)N[C@@H](Cc1ccc(OC(C)(C)C)cc1)C(=O)OC(C)(C)C [Example 12, [S-(R*,R*)]-2-{2-[(Azepane-1-carbonyl)-amino]-4-methyl-pentanoylamino}-3-(4-tert-butoxy-phenyl)-propionic acid tert-butyl ester]	–	–	–	65%	57%	95%	480 nM	87 to 90 °C	6780 nM	14%	38%
CC(C)C[C@H](NC(=O)N1CCCCCC1)C(=O)N[C@@H](Cc1ccc(C#CC(C)(C)C)cc1)C(=O)NC(C)(C)C [Example 135, [S-(R*,R*)]-Azepane-1-carboxylic acid (1-{1-tert-butylcarbamoyl-2-[4-(3,3-dimethyl-but-1-ynyl)-phenyl]-ethylcarbamoyl}-3-methyl-butyl)-amide]	–	–	670 nM	–	43%	71%	–	180 to 181 °C	–	–	–
CC(C)C[C@H](NC(=O)N1CCCCCC1)C(=O)N[C@@H](Cc1ccc(C#CC2CCCCC2)cc1)C(=O)NC(C)(C)C [Example 136, [S-(R*,R*)]-Azepane-1-carboxylic acid {1-[1-tert-butylcarbamoyl-2-(4-cyclohexylethynyl-phenyl)-ethylcarbamoyl]-3-methyl-butyl}-amide]	–	–	1550 nM	–	45%	64%	–	171 to 172 °C	–	–	–
CC(C)C[C@H](NC(=O)N1CCCCCC1)C(=O)N[C@@H](Cc1ccc(C#Cc2ccccn2)cc1)C(=O)NC(C)(C)C [Example 137, [S-(R*,R*)]-Azepane-1-carboxylic acid {1-[1-tert-butylcarbamoyl-2-(4-pyridin-2-ylethynyl-phenyl)-ethylcarbamoyl]-3-methyl-butyl}-amide]	–	–	2600 nM	–	–	–	–	–	–	–	–
CC(C)C[C@H](NC(=O)N1CCCCCC1)C(=O)N[C@@H](Cc1ccc(C#CCN2CCS(=O)(=O)CC2)cc1)C(=O)NC(C)(C)C [Example 140, [S-(R*,R*)]-Azepane-1-carboxylic acid [1-(1-tert-butylcarbamoyl-2-{4-[3-(1,1-dioxo-1l,6-thiomorpholin-4-yl)-prop-1-ynyl]-phenyl}-ethylcarbamoyl)-3-methyl-butyl]-amide]	–	–	3000 nM	–	–	–	–	117 to 118 °C	–	–	–
CC(C)C[C@H](NC(=O)N1CCCCCC1)C(=O)N[C@@H](Cc1ccc(/C=C\C2CCCCC2)cc1)C(=O)NC(C)(C)C [Example 142, [S-(R*,R*),Z]-Azepane-1-carboxylic acid (1-{1-tert-butylcarbamoyl-2-[4-(2-cyclohexyl-vinyl)-phenyl]-ethylcarbamoyl}-3-methyl-butyl)-amide]	–	–	680 nM	–	–	–	–	168 to 169 °C	–	–	–
CC(C)C[C@H](NC(=O)N1CCCCCC1)C(=O)N[C@@H](Cc1ccc(C=CC2(O)CCCCC2)cc1)C(=O)NC(C)(C)C [Example 143, [S-(R*,R*)]-Azepane-1-carboxylic acid [1-(1-tert-butylcarbamoyl-2-{4-[2-(1-hydroxy-cyclohexyl)-vinyl]-phenyl}-ethylcarbamoyl)-3-methyl-butyl]-amide]	–	–	1300 nM	–	7%	58%	–	125 °C (dec.)	–	–	–
CC(C)C[C@H](NC(=O)N1CCCCCC1)C(=O)N[C@@H](Cc1ccc(CCCN2CCS(=O)(=O)CC2)cc1)C(=O)NC(C)(C)C [Example 150, [S-(R*,R*)]-Azepane-1-carboxylic acid [1-(1-tert-butylcarbamoyl-2-{4-[3-(1,1-dioxo-1l,6-thiomorpholin-4-yl)-propyl]-phenyl}-ethylcarbamoyl)-3-methyl-butyl]-amide]	–	–	3000 nM	–	–	–	–	92 to 93 °C	–	–	–

Continued, in another order:

Inhibition of Calcium Flux in IMR-32 Cells % Inhibition at 1 μM ([1]; 1 μM)	Inhibition of Calcium Flux in IMR-32 Cells % Inhibition at 10 μM ([1]; 10 μM)	IC50 [2]	inhibition at 10 µM [3]	inhibition at 1 µM [1]	inhibition at 10 µM [1]	IC50 [1]	melting point	Compound	IC50 [3]	Inhibition of Na+ Current, % Inhibition at 10 μM [4]	Inhibition of K+ Current, % Inhibition at 10 μM [5]
–	–	–	70%	60%	94%	820 nM	53 to 57 °C	CCC(C)[C@H](NC(=O)N1CCCCCC1)C(=O)N[C@@H](Cc1ccc(OCc2ccccc2)cc1)C(=O)OC(C)(C)C (stereo partly drawn) [Example 5, (S)-2-{(S)-2-[(Azepane-1-carbonyl)-amino]-3-methyl-pentanoylamino}-3-(4-benzyloxy-phenyl)-propionic acid tert-butyl ester]	620 nM	10%	13%
–	–	–	17%	35%	80%	2300 nM	62 to 66 °C	CC(C)C[C@H](NC(=O)N1CCCCCC1)C(=O)N[C@](C)(Cc1ccc(OCc2ccccc2)cc1)C(=O)OC(C)(C)C [Example 11B, 2(R)-{2(S)-[(Azepane-1-carbonyl)-amino]-4-methyl-pentanoylamino}-3-(4-benzyloxy-phenyl)-2-methyl-propionic acid tert-butyl ester]	–	48%	46%
–	–	140 nM	–	61%	89%	–	165 to 166 °C	CC(C)C[C@H](NC(=O)N1CCCCCC1)C(=O)N[C@@H](Cc1ccc(Cc2ccccc2)cc1)C(=O)NC(C)(C)C [Example 53, [S-(R*,R*)]-Azepane-1-carboxylic acid {1-[2-(4-benzyl-phenyl)-1-tert-butylcarbamoyl-ethylcarbamoyl]-3-methyl-butyl}-amide]	–	–	–
–	–	910 nM	–	37%	83%	900 nM	89 to 90 °C	CC(C)C[C@H](NC(=O)N1CCCCCC1)C(=O)N[C@@H](Cc1ccc(NCc2ccccc2)cc1)C(=O)NC(C)(C)C [Example 132, [S-(R*,R*)]-Azepane-1-carboxylic acid {1-[2-(4-benzylamino-phenyl)-1-tert-butylcarbamoyl-ethylcarbamoyl]-3-methyl-butyl}-amide]	–	–	–
–	–	3000 nM	–	–	–	1800 nM	–	CC(C)C[C@H](NC(=O)N1CCCCCC1)C(=O)N[C@@H](Cc1ccc(OCc2ccccc2)cc1)C(=O)NCCN1CCOCC1 [Example 186, [S-(R*,R*)]-Azepane-1-carboxylic acid {1-[2-(4-benzyloxy-phenyl)-1-(2-morpholin-4-ylethylcarbamoyl)-ethylcarbamoyl]-3-methyl-butyl}-amide]	–	–	–
